Measurements taken from patent US6403602B1 (priority 1997, dated 2002).
Counter-ions that a name gives are not always drawn. Like-named read-outs stand apart in the source and are kept apart here.

Assays:
κ2 sites = type: binding, guinea pig
mu opioid receptors = mu opioid receptors (Cavia porcellus, UniProt A0ACM8Q262); type: binding, guinea pig; details: read-out: Ki μ [^3H]DAMGO
kappa1 sites = target: T1, kappa1 sites (Cavia porcellus, UniProt P41144); test: biochemical; type: binding, guinea pig; details: read-out: Ki κ1 [^3H]U69,593
T1 construct: The brains were then homogenized in 50 mM Tris HCl, buffer pH 7.7, using a Polytron; from tissue; host or cells: guinea pig brain homogenate (membrane pellet)

delta receptors [1] = target: T2, delta receptors (Cavia porcellus, UniProt A0A286XTF2); test: biochemical; type: binding, guinea pig
T2 construct: The brains were then homogenized in 50 mM Tris HCl, buffer pH 7.7, using a Polytron; from tissue; host or cells: guinea pig brain homogenate (membrane pellet)

kappa3 receptors = type: binding, guinea pig; details: read-out: Ki κ3 [^3H]NalBzoH
delta receptors [2] = target: T3, delta receptors (Mus musculus, UniProt P32300); type: cell-based
T3 construct: The vas deferens from Swiss-Webster mice (30-35 g) were prepared as described by Hughes et al; from tissue; host or cells: mouse vas deferens (Swiss-Webster)

mu receptors = type: cell-based, guinea pig
[3] = test system: electrically stimulated guinea pig ileum; test: tissue or blood; type: cell-based
[4] = test system: electrically stimulated mouse vas deferens; test: tissue or blood; type: cell-based
kappa receptors = target: T4, kappa receptors (Cavia porcellus, UniProt P41144); type: cell-based, guinea pig
T4 construct: The longitudinal muscle with the myenteric plexus attached was gently separated from the underlying circular muscle; from tissue; host or cells: guinea pig ileum longitudinal muscle with myenteric plexus

[5] = read-out: Guinea Pig Ileum IC50
[6] = read-out: Mouse Vas Deferens IC50
[7] = read-out: IC50 (nM), Guinea Pigs Ileum
[8] = read-out: IC50 (nM), Mouse Vas Deferens

T4 sequence (P41144 whole entry): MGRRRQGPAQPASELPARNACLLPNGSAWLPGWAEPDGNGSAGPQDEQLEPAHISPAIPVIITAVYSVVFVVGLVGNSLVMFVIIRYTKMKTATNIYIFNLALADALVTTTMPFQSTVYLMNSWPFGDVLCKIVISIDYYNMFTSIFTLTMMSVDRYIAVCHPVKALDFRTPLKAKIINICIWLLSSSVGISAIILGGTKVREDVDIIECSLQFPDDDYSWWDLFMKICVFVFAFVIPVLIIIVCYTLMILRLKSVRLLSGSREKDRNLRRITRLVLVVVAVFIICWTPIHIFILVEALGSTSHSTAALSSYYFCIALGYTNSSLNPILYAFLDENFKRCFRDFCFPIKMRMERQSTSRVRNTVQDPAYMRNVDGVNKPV
T1 sequence (P41144 whole entry): as above
mu opioid receptors, sequence (A0ACM8Q262 1-400): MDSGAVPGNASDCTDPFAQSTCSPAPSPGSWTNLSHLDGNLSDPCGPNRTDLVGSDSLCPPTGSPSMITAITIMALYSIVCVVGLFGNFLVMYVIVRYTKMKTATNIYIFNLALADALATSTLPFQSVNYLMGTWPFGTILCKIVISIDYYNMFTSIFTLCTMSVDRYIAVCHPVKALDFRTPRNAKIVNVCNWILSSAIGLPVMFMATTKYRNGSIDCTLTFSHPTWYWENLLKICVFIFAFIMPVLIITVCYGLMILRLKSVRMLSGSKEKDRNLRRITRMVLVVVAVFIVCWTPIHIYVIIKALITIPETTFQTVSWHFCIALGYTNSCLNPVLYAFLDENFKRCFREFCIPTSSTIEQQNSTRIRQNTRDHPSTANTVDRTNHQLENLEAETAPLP
T3 sequence (P32300 whole entry): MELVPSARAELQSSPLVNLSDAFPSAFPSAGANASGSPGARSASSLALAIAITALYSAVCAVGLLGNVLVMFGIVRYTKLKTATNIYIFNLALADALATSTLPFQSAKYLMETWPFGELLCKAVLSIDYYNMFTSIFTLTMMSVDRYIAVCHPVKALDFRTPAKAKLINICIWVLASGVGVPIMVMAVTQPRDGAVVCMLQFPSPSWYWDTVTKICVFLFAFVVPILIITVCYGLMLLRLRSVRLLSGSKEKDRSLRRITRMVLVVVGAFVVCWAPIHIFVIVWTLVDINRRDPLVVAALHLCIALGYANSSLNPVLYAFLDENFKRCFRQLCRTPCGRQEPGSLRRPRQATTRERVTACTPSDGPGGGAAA
T2 sequence (A0A286XTF2 1-366): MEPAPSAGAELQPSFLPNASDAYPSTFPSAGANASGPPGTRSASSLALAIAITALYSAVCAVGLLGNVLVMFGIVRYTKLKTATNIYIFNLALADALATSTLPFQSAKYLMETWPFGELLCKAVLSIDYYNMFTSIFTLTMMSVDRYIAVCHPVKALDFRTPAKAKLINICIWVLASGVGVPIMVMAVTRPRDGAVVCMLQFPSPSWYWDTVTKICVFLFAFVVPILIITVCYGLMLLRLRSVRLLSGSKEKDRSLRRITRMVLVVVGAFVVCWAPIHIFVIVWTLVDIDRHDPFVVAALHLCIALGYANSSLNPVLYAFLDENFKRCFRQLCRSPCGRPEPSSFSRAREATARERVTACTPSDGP

Row | Molecule | IC50 (κ2 sites) [nM] | Ki (mu opioid receptors) [nM] | Ki (kappa1 sites) [nM] | Ki (kappa3 receptors) [nM] | Ki (delta receptors [1]; read-out: Ki δ [^3H]Cl-DPDPE) [nM] | Mouse Vas Deferens DR with Naltrindole (delta receptors [2]) | Guinea Pig Ileum DR with CTAP (mu receptors) | Guinea Pig Ileum Ke of CTAP (mu receptors) | IC50 [3, 5] [nM] | IC50 [4, 6] [nM] | Guinea Pig Ileum DR with Nor-BNI (kappa receptors) | Guinea Pig Ileum Ke of Nor-BNI (kappa receptors) | other results
1 | O=C1/C(=C/c2ccccc2)C[C@@]2(O)[C@H]3Cc4ccc(O)c5c4[C@@]2(CCN3CC2CC2)[C@H]1O5 [BNTX] | 822 | 1.9 | 7.1 |  |  |  |  |  |  |  |  |  | 
2 | CCCN1CCCC(c2cccc(O)c2)C1 (single isomer, unassigned; (+)) [(+) 3-PPP-HCl] | > 10000 | 3450 | 388 | 782 |  |  |  |  |  |  |  |  | Ki (delta receptors [1]; read-out: Ki δ, experiment done with [^3H]DPDPE): > 10000 nM
3 | Oc1ccc2c3c1O[C@H]1c4[nH]c5c(c4C[C@@]4(O)[C@@H](C2)N(CC2CC2)CC[C@]314)C[C@@]1(O)[C@H]2Cc3ccc(O)c4c3[C@@]1(CCN2CC1CC1)[C@H]5O4 [Nor-BNI (HCl)2, nor-binaltorphimine] | 37.5 |  | 0.3 | 15 |  |  |  |  |  |  |  |  | Ki (delta receptors [1]): 6.3 nM
4 | Oc1ccc2c3c1O[C@H]1c4oc5ccccc5c4C[C@@]4(O)[C@@H](C2)N(CC2CC2)CC[C@]314 [NTB] | 406 | 6.5 | 10.2 | 7.5 | 0.06 |  |  |  |  |  |  |  | 
5 | 3-O-Acetyl-7,8-dihydromorphine-6-O-sulfate [NIDA # 20,265] | > 10000 | 13.7 |  |  | 325 | 0.924 ± 0.64 | 6.03 ± 0.97 | 20.25 ± 3.92 | 37.7 ± 6.55 | 1110 |  |  | 
6 | CC[C@@]12CCN(CC3CC3)C(C(=O)c3ccc(O)cc31)[C@@H]2C (single isomer, unassigned; (-)) [(−)EKC] | 25.2 | 0.4 |  | 3.9 | 2 |  |  |  |  |  |  |  | DR with Naltrindole (delta receptors [2]): 0.90; DR with CTAP (mu receptors): 0.62; IC50 [3, 7]: 0.15 nM; IC50 [4, 8]: 5.31 nM
7 | (−) Pentazocine-succinate | 424 | 5.7 | 4.4 | 12.4 |  |  | 0.73 ± 0.38 |  | 170 |  | 6.10 | 4.00 ± 0.8 | 
8 | CC[C@H](C)[C@H](NC(=O)[C@H](C)NC(=O)[C@H](CC(N)=O)NC(=O)[C@H](CCCCN)NC(=O)[C@H](Cc1ccccc1)NC(=O)[C@H](CC(C)C)NC(=O)[C@@H](NC(=O)[C@@H](NC(=O)[C@H](CC(C)C)NC(=O)[C@@H]1CCCN1C(=O)[C@@H](NC(=O)[C@H](CCC(N)=O)NC(=O)[C@H](CO)NC(=O)[C@H](CCCCN)NC(=O)[C@H](CCC(=O)O)NC(=O)[C@H](CO)NC(=O)[C@@H](NC(=O)[C@H](CCSC)NC(=O)[C@H](Cc1ccccc1)NC(=O)CNC(=O)CNC(=O)[C@@H](N)Cc1ccc(O)cc1)[C@@H](C)O)[C@@H](C)O)C(C)C)[C@@H](C)O)C(=O)N[C@H](C(=O)N[C@@H](CCCCN)C(=O)N[C@@H](CC(N)=O)C(=O)N[C@@H](C)C(=O)N[C@@H](Cc1ccc(O)cc1)C(=O)N[C@@H](CCCCN)C(=O)N[C@@H](CCCCN)C(=O)NCC(=O)N[C@@H](CCC(=O)O)C(=O)O)[C@@H](C)CC [β-Endorphin-OH] | 2050 |  |  | 14.5 |  | 7.98 | 5.86 | 20.87 | 59.4 | 68 | 4.24 | 6.98 | Mouse Vas Deferens Ke of Naltrindole (delta receptors [2]): 0.156 ± 0.05
9 | Leu-Enkephalin | > 10000 |  |  | 1670 |  | 28.07 | 4.63 | 29.38 | 87.3 | 7.38 | 1.94 | 21.41 | Mouse Vas Deferens Ke of Naltrindole (delta receptors [2]): 0.038; Mouse Vas Deferens Ratio (Naltrindole) (delta receptors [2]): 0.577; Guinea Pig Ileum Ratio (CTAP) (mu receptors): 0.659; Guinea Pig Ileum Ratio (Nor-BNI) (kappa receptors): 0.002
10 | Dynorphin (1-8) | 1760 |  |  | 12.9 |  |  |  |  |  |  |  |  | DR with Naltrindole (delta receptors [2]): 2.77; Ke of Naltrindole (delta receptors [2]): 0.64; Ratio (after Ke of Naltrindole) (delta receptors [2]): 0.033; DR with CTAP (mu receptors): 0.98; IC50 [3, 7]: 71.8 nM; DR with Nor-BNI (kappa receptors): 18.44; Ke of Nor-BNI (kappa receptors): 1.21; Ratio (after Ke of Nor-BNI) (kappa receptors): 0.050; IC50 [4, 8]: 56.4 nM
